6 molecules from patent US20240383908A1, “SYNTHESIS AND APPLICATION OF PHOSPHATASE DEGRADER” (HINOVA PHARMACEUTICALS INC., priority 2021, published 2024) can be followed below.

Experiment [1] has as its target T1, SHP2 protein (Homo sapiens, UniProt Q06124).
T1 sequence (Q06124 1-593): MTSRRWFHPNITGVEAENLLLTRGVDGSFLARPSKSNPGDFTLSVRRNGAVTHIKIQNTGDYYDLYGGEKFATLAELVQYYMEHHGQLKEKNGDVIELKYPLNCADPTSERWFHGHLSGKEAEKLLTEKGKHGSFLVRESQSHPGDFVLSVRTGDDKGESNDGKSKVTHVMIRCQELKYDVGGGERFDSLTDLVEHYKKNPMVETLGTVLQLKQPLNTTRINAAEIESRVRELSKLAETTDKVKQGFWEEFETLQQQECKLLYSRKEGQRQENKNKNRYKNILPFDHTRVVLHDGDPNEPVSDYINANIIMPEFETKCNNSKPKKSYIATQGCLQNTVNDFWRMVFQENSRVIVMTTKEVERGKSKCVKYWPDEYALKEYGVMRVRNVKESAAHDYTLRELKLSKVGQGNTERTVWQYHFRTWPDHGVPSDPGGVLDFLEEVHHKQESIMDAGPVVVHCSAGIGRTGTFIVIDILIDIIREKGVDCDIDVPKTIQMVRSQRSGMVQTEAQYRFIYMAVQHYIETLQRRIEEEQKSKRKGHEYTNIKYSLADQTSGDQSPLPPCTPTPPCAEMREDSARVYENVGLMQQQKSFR
The experiment can be described thus: Degradation activity on SHP2 protein in MV-411 cells (Western blot, DC50). Further details: endogenous in cells. The note with it: MV411 cells, 24 hours, read-out: Degradation activity for differenct cell lines MV411 (DC50). In kind it is cell-based. The method in brief:
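MV-411 cells (1×10^6 cells/well, IMDM + 10% FBS) were treated 24 h with compound at 0.1-100 nM final, 0.1% DMSO, duplicates. SHP2 measured by Western blot against GAPDH, band density normalised to DMSO control; DC50 from dose-response fit.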

For experiment [2], the system named is NCI-H358. The experiment can be described thus: Inhibition of cell proliferation, NCI-H358 (CCK-8). Format: cell-based. The following applies: Homo sapiens, NCI-H358 cells, read-out: Inhibition activity on the proliferation of different cell lines NCI-H358 (IC50). The protocol:
(1) MV-411 cells were cultured in the cell culture medium, and then well-growing cells were selected and inoculated in a 96-well plate at 80 μL/well, with 2×10^4 cells/well. The plate was incubated overnight in a 5% CO2 cell incubator at 37° C.
(2) 10 mM storage solution of each drug was prepared using dimethylsulfoxide (DMSO). The stock solution was diluted in a ratio of 1:3 with DMSO before use, and then the solution was serially diluted in a ratio of 1:3, to obtain 9 gradient concentrations. Each concentration was further diluted with the medium in a ratio of 1:200 (to ensure that the DMSO concentration in the culture system was 0.1%). Two wells were set for each concentration. 20 μL of each compound solution was added to the cell culture well (with a final concentration of 10 μM, 3.3 μM, 1.1 μM . . . ). The plate was gently shaken and mixed. Additionally, 3 negative control wells (only containing cells) and 3 blank control wells (only containing the medium) were included (6 wells were each added with 20 μL of DMSO diluted with the medium in a ratio of 1:200).
(1) After 5 days of cultivation, 10 μL of CCK-8 was added to each well, and then the plate was further cultured for 3 h at 37° C. in a 5% CO2 cell incubator.
(2) The absorbance (OD value) was measured at 450 nm with a multifunctional microplate reader. (3) The data were analyzed using the Dose-response-inhibition equation in GraphPad Prism8 software to obtain the IC50 value.
Using a similar method, the IC50 value (nM) for the inhibitory activity of the compound according to the present invention against different cell lines was obtained, and the results are shown in Table 3 (++++: IC50>5 μM; +++: 1 μM<IC50<5 μM; ++: IC50<1 μM).

The DC50 is the concentration at which degradation of the target reaches its halfway point. In the case of `CC1(N)CCN(c2cnc(Sc3cccc(NC(=O)CCCCCCCCN4CCN(c5ccc(C(=O)NCc6ccc7c(c6)CN(C6CCC(=O)NC6=O)C7=O)nn5)CC4)c3)cn2)CC1` (stereo not drawn) [Compound 63], the DC50 in experiment [1] is less than 100 nM. The IC50 in experiment [2] is less than 1000 nM.

For the molecule `CC1(N)CCN(c2cnc(Sc3cccc(NC(=O)CCCCCCCCN4C5CCC4CN(c4ccc(C(=O)NCc6ccc7c(c6)CN(C6CCC(=O)NC6=O)C7=O)nn4)C5)c3)cn2)CC1` (stereo not drawn) [Compound 119], the DC50 in experiment [1] is less than 100 nM. Besides, in experiment [2], the IC50 is less than 1000 nM.

With `CCC1(N)CCN(c2cnc(Sc3cccc(NC(=O)CCCCCCN4CC5(CCN(c6ccc(C(=O)NCc7ccc8c(c7)CN(C7CCC(=O)NC7=O)C8=O)nn6)C5)C4)c3)cn2)CC1` (stereo not drawn) [Compound 161], in experiment [1], the DC50 was less than 100 nM. Also, the IC50 in experiment [2] was 1000 to 5000 nM.

With `NC1(CO)CCN(c2cnc(Sc3cccc(NC(=O)CCCCCCN4CC5(CCN(c6ccc(C(=O)NCc7ccc8c(c7)CN(C7CCC(=O)NC7=O)C8=O)nn6)C5)C4)c3)cn2)CC1` (stereo not drawn) [Compound 168], in experiment [1], the 50% degradation concentration (DC50) was less than 100 nM. Besides, in experiment [2], the IC50 fell in the range of 1000 to 5000 nM.

Take `CC1(N)CCN(c2cnc(Sc3cccc(NC(=O)CCCCCCCCN4CCN(c5ccc(C(=O)NCc6ccc7c(c6)CN(C6CCC(=O)NC6=O)C7=O)nn5)CC4C(F)(F)F)c3)cn2)CC1` (stereo not drawn) [Compound 174]: the DC50 in experiment [1] is less than 100 nM. In experiment [2], the IC50 was in the range of 1000 to 5000 nM.

With `Cc1ncsc1-c1ccc([C@H](C)NC(=O)[C@@H]2C[C@@H](O)CN2C(=O)[C@@H](NC(=O)CCCCCCCCN2CCN(C(=O)CCC(=O)Nc3cccc(Sc4ncc(N5CCC(C)(N)CC5)nc4N)c3Cl)CC2)C(C)(C)C)cc1` [Compound 999], the DC50 in experiment [1] is less than 100 nM. Besides, the IC50 in experiment [2] is 1000 to 5000 nM.
